According to PubChem BioAssay (NCI):
“And” between values parts separate entries of the source, which are not always exact repeats. Equal entries are not always repeated.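 Exposure lasted 48 hours, with cells grown in 96-well plates and compounds tested at five concentrations. GI50 is the concentration that inhibits growth by half. TGI is the concentration that stops growth completely.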 *1 amine or outer side, *2 acyl side, *3 side chain or, on linkers, in order; H or OH if unused. Where a SMILES comes first, the peptide text is derived from it. The star is where a group is joined. γGlu = O=C(O)[CH](CCC(=O)[*:2])N[*:1]; NHOH = ON*

Tests used:
Assay in all cases: NCI-60 cell line screen, 48 h
[1] = tested on: MALME-3M melanoma
[2] = tested on: NCI-H522 lung
[3] = tested on: A549 NSCLC
[4] = tested on: MDA-MB-231 breast
[5] = tested on: SNB-19 CNS
[6] = tested on: SK-MEL-5 melanoma
[7] = tested on: TK-10 renal
[8] = tested on: HL-60(TB) leukemia
[9] = tested on: DU-145 prostate
[10] = tested on: A498 renal

SMILES	TGI [1]	TGI [2] [µM]	TGI [3] [µM]	TGI [4] [µM]	TGI [5] [µM]	TGI [6] [µM]	TGI [7] [µM]	TGI [8]	TGI [9] [µM]	TGI [10] [µM]	GI50 [1]	GI50 [3]	GI50 [4]	GI50 [6]	GI50 [8]
CC1(N2CCOCC2)CC2C(=[N+]1[O-])CCC/C2=N/O (configuration not stated)	> 100 µM	> 100	> 100	> 100	> 100	> 100	> 100								
CCOC(=O)c1nc2ccccc2nc1Nc1cc(OC)c(OC)c(OC)c1	> 100 µM	> 100	> 100	> 100	> 100	> 100		> 100 µM	> 100						
CN(C)c1ccc(-c2c(C#N)c(-c3ccccc3)n(NS(=O)(=O)c3ccccc3)c(=O)c2C#N)cc1	> 100 µM	> 100	> 100	> 100	83.5	46.8	> 100			> 100					
C#CCOC(=O)C=[N+]=[N-]	> 10 µM		> 10	> 10	> 10			> 10 µM	> 10	> 10					
Cc1cccc(C)c1NC(=S)N/C=C(\C#N)C(N)=O	> 100 µM	> 100	> 100	> 100	> 100	> 100	> 100		> 100						
CCN(CC)C1=Nc2ccccc2-n2ccnc2C1		> 100	> 100	> 100	> 100	> 100	> 100	> 100 µM	> 100	> 100					
O=[N+]([O-])C1=Cc2c(O)ccc(O)c2C2OC=CC12 (configuration not stated)		18.1	43.4	40.1	52.2	26.2	30.3	> 30.4 µM	> 54.6	30.1					
CC(C)(C)c1ccc(O)c(C(O)c2ccccn2)c1 (configuration not stated)	> 100 µM	> 100	> 100	> 100	> 100		> 100	> 100 µM	> 100						
CCOc1cc2c(cc1OC)c[n+](C)c1c3cc(OC)c(OC)cc3ccc21	> 100 µM	> 100	> 100		> 100	> 100	> 100	32.2 µM		> 100					
O=[N+]([O-])C(/C(Cl)=C(/Cl)N1CCOCC1)=C1\Nc2ccccc2O1	> 100 µM		> 100	> 100	> 100				> 100	> 100					
COc1ccc(Nc2nc3ccccc3nc2-c2cccs2)cc1OC		> 10	> 10	> 10	> 10	> 10	> 10	> 10 µM	> 10						
Cc1cc2c(cc1Cl)SSc1cc(Cl)c(C)cc1S(=O)(=O)Nc1nc(N)nn1C(O)n1nc(N)nc1NS2(=O)=O	> 10 µM	> 10	> 10		> 10	> 10	> 10	> 10 µM	> 10	> 10					
CCOC(=O)c1ccc(N2C(=O)/C(=C/c3ccc(N(CCC#N)CCC#N)cc3)N=C2c2cc([N+](=O)[O-])ccc2Cl)cc1	> 100 µM	> 100	> 100		> 100	> 100	> 100								
Cc1ccccc1NC(=O)C(=O)C(C1OC(=O)c2ccccc21)[N+](=O)[O-] (configuration not stated)		> 100	> 100		> 100	> 100	> 100	> 100 µM		> 100					
Fc1ccc(/C=C2\COCC3=C2NC(=S)NC3c2ccc(F)cc2)cc1 (configuration not stated)		34.2		33.9	47.7	33.5	45.5	35.4 µM	77.3	30.6					
Cc1cc2c3c(c1)S(=O)(=O)c1cc(Cl)ccc1N3CCC2	> 100 µM		> 100	> 100	> 100	> 100	> 100	> 100 µM	> 100	> 100					
O=C1O/C(=C(\Br)c2ccc([N+](=O)[O-])cc2)c2ccccc21	> 100 µM	> 88.8	> 100		> 100	> 100	> 100	> 67.1 µM	> 100	> 100					
O=C1C(NS(=O)(=O)c2ccccc2)=C(n2ccnc2)C(=O)c2ccccc21	> 100 µM	> 100	> 100	> 100	> 100	> 100	> 100	> 100 µM	> 100						

SMILES	TGI [1]	TGI [2] [µM]	TGI [3] [µM]	TGI [4] [µM]	TGI [5] [µM]	TGI [6] [µM]	TGI [7] [µM]	TGI [8]	TGI [9] [µM]	TGI [10] [µM]	GI50 [1]	GI50 [3]	GI50 [4]	GI50 [6]	GI50 [8]
COC(=O)/C(=C(/C)c1ccco1)P(=O)(OC)OC	> 100 µM	> 100	> 100	> 100	> 100	> 100	> 100		> 100	> 100					
O=c1[nH]c2c(C(F)(F)F)c(Cl)c(-c3ccccc3)nc2o1		> 100	> 100	65.2	> 100	> 100	> 100	13.7 µM	> 100	> 100					
NCC(=O)N[C@H]1c2ccsc2/C(=N/O)[C@H]1O	> 100 µM		> 100	> 100		> 100	> 100	> 100 µM	> 100	> 100					
CC(Nc1cccc(Cl)c1)c1ccncc1 (configuration not stated)	> 100 µM	> 100	> 100	> 100	> 100	> 100	> 100		> 100	> 100					
O=C(O)CSC1=NCCN1	> 100 µM	> 100	> 100	> 100	> 100	> 100	> 100		> 100	> 100					
CCOC(=O)Cn1nnc2ccc(Nc3nc4ccccc4nc3C(=O)OCC)cc21	> 100 µM	> 100	> 100		> 100	> 100	> 100	> 100 µM	> 100	> 100					
c1ccc(C/C(=N\Nc2nc3ccccc3[nH]2)c2ccccn2)cc1	2.23 µM	0.105	11.9	13.4	17.9	4.65	1.83		27.7	1.37					
NC(CCC(=O)NC(CCC(=O)NO)C(=O)NCC(=O)O)C(=O)O (configuration not stated) (γGlu-Glu(NHOH)-Gly-OH; configuration not given here)		> 100	> 100	> 100	> 100	> 100	> 100	> 100 µM	> 100	> 100					
COC(=O)C12CCCN1CCC2	> 100 µM	> 100	> 100	> 100	> 100	> 100	> 100		> 100						
COC(=O)C12C(=O)CC3CCC1C32C(=O)OC (configuration not stated)	> 100 µM	> 100	> 100	> 100	> 100	> 100	> 100		> 100						
CC(C)(C)OC(=O)C1C(=O)NC(=O)CC1C(OCc1ccccc1)C(OCc1ccccc1)C(COCc1ccccc1)OCc1ccccc1 (configuration not stated)	> 100 µM and 73 µM		> 100	> 100	> 100	> 100	> 100	> 100 µM and 49.5 µM	> 100	> 100	> 100 µM and 15.7 µM	> 100 µM and 26.9 µM	> 100 µM and 40.5 µM	> 100 µM and 28.4 µM	61.7 µM and 12.8 µM
CC1OC1C(=O)P(=O)(O)O (configuration not stated)		> 100	> 100	> 100	> 100	> 100	> 100	> 100 µM	> 100	> 100					
COc1cc2c(c3nc4ccccc4nc13)-c1ccc(SC)c(=O)cc1[C@@H](NC(C)=O)CC2	0.0861 µM	0.151	> 100	> 100	> 100	> 100	> 100		0.838	> 65.1					
Cc1ccc(N=NC(=Nc2ccc(F)cc2)c2ccc(N(CCC#N)CCC#N)cc2)cc1		63.7	> 100	> 100	> 100	> 100	> 100		> 100	> 100					
COC(=O)[C@H](Cc1ccccc1)NC(=O)N(CCN(CCC#N)C(=O)N[C@H](C(=O)OC)C(C)C)c1ccccc1	> 100 µM	> 100	> 100	> 100	> 100	> 100	> 100		> 100	> 100					
COC1CCC(O)C(CO)O1 (configuration not stated)	65.3 µM	26.9	> 100			> 100	> 100	87 µM							
C[C@]12C(=O)OC[C@H](c3ccccc3)N1C(=O)N(Cc1ccccc1)[C@@H]2CO	> 100 µM		> 100	> 100	> 100	> 100	> 100	> 100 µM	> 100	> 100					
O=C(CN1CCCCC1)c1ccc2[nH]c(=O)oc2c1	> 100 µM			> 100	> 100	> 100	> 100	> 100 µM	> 100	> 100					
